Common to all, as to experiment: MIC, broth microdilution
The test system of assay [1] is Salmonella spp. GC 235.
Protocol: (§1) Antimicrobial susceptibility testing. The in vitro activities of the antibiotics are determined by the broth microdilution method as recommended by the National Committee for Clinical Laboratory Standards (NCCLS) (1). Mueller-Hinton II broth (MHBII)(BBL Cockeysville, Md.) is the medium employed in the testing procedures. Microtiter plates containing serial dilutions of each antimicrobial agent are inoculated with each organism to yield the appropriate density (10^5 CFU/ml) in a 100 μl final volume. The plates are incubated for 18-22 hours at 35° C. in ambient air.
Representative compounds were first incubated in mouse serum for an hour prior to the in vitro testing against a panel of selected gram-positive and gram-negative bacteria strains. All compounds were also pre-incubated in water for an hour prior to testing as control.
The test system of assay [2] is S. cholerasius GC 1355.
Protocol: as §1
Presented in Tables I-XIII are representative compounds of Formula I which were evaluated against a panel of 40 selected gram-positive and gram-negative bacteria strains by pre-incubation in water, mouse serum or human serum. Representative compounds were first incubated in mouse serum for an hour prior to the in vitro testing against a panel of selected gram-positive and gram-negative bacteria strains. All compounds were also pre-incubated in water for an hour prior to testing as control. Representative compounds of Formula I were incubated in human serum prior to MIC determination.
The subject of assay [3] is Salmonella spp. GC 566. The settings on record: Salmonella.
Where [4] appears, read: Salmonella, SPP.GC235, Salmonella spp. GC 235, Mouse Serum pre-incubation.
The mark [5] stands for this setting: Salmonella, SPP.GC235, Salmonella spp. GC 235, Water pre-incubation.
The mark [6] stands for this setting: S. cholerasius GC 1355, Mouse Serum pre-incubation.
Where [7] appears, read: S. cholerasius GC 1355, Water pre-incubation.
Where [8] appears, read: SPP.GC566, Salmonella spp. GC 566, Mouse Serum pre-incubation.
The mark [9] stands for this setting: SPP.GC566, Salmonella spp. GC 566, Water pre-incubation.
Setting [10] is: Salmonella, SPP.GC235, pre-incubation in mouse serum.
[11] abbreviates: Salmonella, SPP.GC235, pre-incubation in water.
The mark [12] stands for this setting: SPP.GC566, pre-incubation in mouse serum.
The mark [13] stands for this setting: SPP.GC566, pre-incubation in water.

≈ marks a conversion by molar mass, not a printed value.

As to `CCCN(CC(=O)Nc1cc(N(C)C)c2c(c1O)C(=O)C1=C(O)[C@]3(O)C(=O)C(C(N)=O)=C(O)[C@@H](N(C)C)[C@@H]3C[C@@H]1C2)C(=O)OCOC(=O)C(C)C` [Example 10, ({[(2-{[(5aR,6aS,7S,10aS)-9-(aminocarbonyl)-4,7-bis(dimethylamino)-1,8,10a,11-tetrahydroxy-10,12-dioxo-5,5a,6,6a,7,10,10a,12-octahydrotetracen-2-yl]amino}-2-oxoethyl)(propyl)amino]carbonyl}oxy)methyl 2-methylpropanoate], the MIC was 0.5 µg/mL (≈ 0.699 µM) in assay [1] (setting [4]); 32 µg/mL (≈ 44.7 µM) in assay [1] (setting [5]); 16 µg/mL (≈ 22.4 µM) in assay [2] (setting [6]); greater than 64 µg/mL in assay [2] (setting [7]); 2 µg/mL (≈ 2.79 µM) in assay [3] (setting [8]); greater than 64 µg/mL in assay [3] (setting [9]).
For the molecule `CCCCN(CC(=O)Nc1cc(N(C)C)c2c(c1O)C(=O)C1=C(O)[C@]3(O)C(=O)C(C(N)=O)=C(O)[C@@H](N(C)C)C3CC1C2)C(=O)OCOC(=O)c1ccc(OC)cc1` (stereo partly drawn) [Example 2, ({[(2-{[(7S,10aS)-9-(aminocarbonyl)-4,7-bis(dimethylamino)-1,8,10a,11-tetrahydroxy-10,12-dioxo-5,5a,6,6a,7,10,10a,12-octahydrotetracen-2-yl]amino}-2-oxoethyl)(butyl)amino]carbonyl}oxy)methyl 4-methoxybenzoate], the MIC in assay [1] (setting [4]) is 8 µg/mL (≈ 10.1 µM); in assay [1] (setting [5]), greater than 64 µg/mL; in assay [2] (setting [6]), greater than 64 µg/mL; in assay [2] (setting [7]), greater than 64 µg/mL; in assay [3] (setting [8]), 8 µg/mL (≈ 10.1 µM); in assay [3] (setting [9]), greater than 64 µg/mL.
As to `CCCN(CC(=O)Nc1cc(N(C)C)c2c(c1O)C(=O)C1=C(O)[C@]3(O)C(=O)C(C(N)=O)=C(O)[C@@H](N(C)C)[C@@H]3C[C@@H]1C2)C(=O)OCC(C)C` [Example 16, isobutyl 2-{[(5aR,6aS,7S,10aS)-9-(aminocarbonyl)-4,7-bis(dimethylamino)-1,8,10a,11-tetrahydroxy-10,12-dioxo-5,5a,6,6a,7,10,10a,12-octahydrotetracen-2-yl]amino}-2-oxoethyl(propyl)carbamate], the MIC in assay [1] (setting [4]), in assay [1] (setting [5]), in assay [2] (setting [6]), in assay [2] (setting [7]), in assay [3] (setting [8]) and in assay [3] (setting [9]) was greater than 64 µg/mL throughout.
On to `CCCN(CC(=O)Nc1cc(N(C)C)c2c(c1O)C(=O)C1=C(O)[C@]3(O)C(=O)C(C(N)=O)=C(O)[C@@H](N(C)C)[C@@H]3C[C@@H]1C2)C(=O)OCOC(=O)c1ccc(OC)cc1` [Example 6, ({[(2-{[(5aR,6aS,7S,10aS)-9-(aminocarbonyl)-4,7-bis(dimethylamino)-1,8,10a,11-tetrahydroxy-10,12-dioxo-5,5a,6,6a,7,10,10a,12-octahydrotetracen-2-yl]amino}-2-oxoethyl)(propyl)amino]carbonyl}oxy)methyl 4-methoxybenzoate], for which the MIC in assay [1] (setting [4]) was 2 µg/mL (≈ 2.56 µM); in assay [1] (setting [5]) it was 16 µg/mL (≈ 20.5 µM); in assay [2] (setting [6]) it was 16 µg/mL (≈ 20.5 µM); in assay [2] (setting [7]) it was greater than 64 µg/mL; in assay [3] (setting [8]) it was 4 µg/mL (≈ 5.13 µM); in assay [3] (setting [9]), 64 µg/mL (≈ 82.1 µM).
On to `CCCCN(CC(=O)Nc1cc(N(C)C)c2c(c1O)C(=O)C1=C(O)[C@]3(O)C(=O)C(C(N)=O)=C(O)[C@@H](N(C)C)C3CC1C2)C(=O)OCc1oc(=O)oc1C` (stereo partly drawn) [Example 109, (5-methyl-2-oxo-1,3-dioxol-4-yl)methyl 2-{[(7S,10aS)-9-(aminocarbonyl)-4,7-bis(dimethylamino)-1,8,10a,11-tetrahydroxy-10,12-dioxo-5,5a,6,6a,7,10,10a,12-octahydrotetracen-2-yl]amino}-2-oxoethyl(butyl)carbamate], for which the MIC in assay [1] (setting [10]) was found to be 1 µg/mL (≈ 1.35 µM); in assay [1] (setting [11]), 2 µg/mL (≈ 2.7 µM); in assay [1] (pre-incubation in water), 4 UG/ML; in assay [2] (pre-incubation in mouse serum), 8 µg/mL (≈ 10.8 µM); in assay [2] (pre-incubation in water), 32 µg/mL (≈ 43.1 µM); in assay [3] (setting [12]) it was 2 µg/mL (≈ 2.7 µM). For the same molecule, the MIC in assay [3] (setting [13]) came to 4 µg/mL (≈ 5.39 µM).
On to `CCCN(CC(=O)Nc1cc(N(C)C)c2c(c1O)C(=O)C1=C(O)[C@]3(O)C(=O)C(C(N)=O)=C(O)[C@@H](N(C)C)[C@@H]3C[C@@H]1C2)C(=O)OCOC(=O)C(C)(C)C` [Example 9, ({[(2-{[(5aR,6aS,7S,10aS)-9-(aminocarbonyl)-4,7-bis(dimethylamino)-1,8,10a,11-tetrahydroxy-10,12-dioxo-5,5a,6,6a,7,10,10a,12-octahydrotetracen-2-yl]amino}-2-oxoethyl)(propyl)amino]carbonyl}oxy)methyl pivalate], for which the MIC was 1 µg/mL (≈ 1.37 µM) in assay [1] (setting [4]); 8 µg/mL (≈ 11 µM) in assay [1] (setting [5]); 64 µg/mL (≈ 87.7 µM) in assay [2] (setting [6]); greater than 64 µg/mL in assay [2] (setting [7]); 2 µg/mL (≈ 2.74 µM) in assay [3] (setting [8]); 64 µg/mL (≈ 87.7 µM) in assay [3] (setting [9]).
As for `CCCCN(CC(=O)Nc1cc(N(C)C)c2c(c1O)C(=O)C1=C(O)[C@]3(O)C(=O)C(C(N)=O)=C(O)[C@@H](N(C)C)C3CC1C2)C(=O)OCOC(=O)c1ccc(C)cc1` (stereo partly drawn) [Example 3, ({[(2-{[(7S,10aS)-9-(aminocarbonyl)-4,7-bis(dimethylamino)-1,8,10a,11-tetrahydroxy-10,12-dioxo-5,5a,6,6a,7,10,10a,12-octahydrotetracen-2-yl]amino}-2-oxoethyl)(butyl)amino]carbonyl}oxy)methyl 4-methylbenzoate], the MIC was 2 µg/mL (≈ 2.57 µM) in assay [1] (setting [4]); greater than 64 µg/mL in assay [1] (setting [5]); 16 µg/mL (≈ 20.6 µM) in assay [2] (setting [6]); greater than 64 µg/mL in assay [2] (setting [7]); 4 µg/mL (≈ 5.14 µM) in assay [3] (setting [8]); greater than 64 µg/mL in assay [3] (setting [9]).
For the molecule `CCCN(CC(=O)Nc1cc(N(C)C)c2c(c1O)C(=O)C1=C(O)[C@]3(O)C(=O)C(C(N)=O)=C(O)C(N(C)C)C3CC1C2)C(=O)OCc1oc(=O)oc1-c1ccccc1` (stereo in doubt) [Example 110, (2-oxo-5-phenyl-1,3-dioxol-4-yl)methyl 2-{[(7R,10aS)-9-(aminocarbonyl)-4,7-bis(dimethylamino)-1,8,10a,11-tetrahydroxy-10,12-dioxo-5,5a,6,6a,7,10,10a,12-octahydrotetracen-2-yl]amino}-2-oxoethyl(propyl)carbamate], the MIC was 4 µg/mL (≈ 5.06 µM) in assay [1] (setting [10]); 8 µg/mL (≈ 10.1 µM) in assay [1] (setting [11]); greater than 64 µg/mL in assay [2] (pre-incubation in mouse serum); greater than 64 µg/mL in assay [2] (pre-incubation in water); 16 µg/mL (≈ 20.3 µM) in assay [3] (setting [12]); 32 µg/mL (≈ 40.5 µM) in assay [3] (setting [13]).
As to `CCCCN(CC(=O)Nc1cc(N(C)C)c2c(c1O)C(=O)C1=C(O)[C@]3(O)C(=O)C(C(N)=O)=C(O)[C@@H](N(C)C)[C@@H]3C[C@@H]1C2)C(=O)OCOC(=O)C(C)(C)C` [Example 13, ({[(2-{[(5aR,6aS,7S,10aS)-9-(aminocarbonyl)-4,7-bis(dimethylamino)-1,8,10a,11-tetrahydroxy-10,12-dioxo-5,5a,6,6a,7,10,10a,12-octahydrotetracen-2-yl]amino}-2-oxoethyl)(butyl)amino]carbonyl}oxy)methyl pivalate], the MIC is 2 µg/mL (≈ 2.69 µM) in assay [1] (setting [4]); 16 µg/mL (≈ 21.5 µM) in assay [1] (setting [5]); 16 µg/mL (≈ 21.5 µM) in assay [2] (setting [6]); greater than 64 µg/mL in assay [2] (setting [7]); 8 µg/mL (≈ 10.8 µM) in assay [3] (setting [8]); 64 µg/mL (≈ 86 µM) in assay [3] (setting [9]).

The values above are taken from patent US20070049564A1 (Wyeth, priority 2005, published 2007).
